Results taken from patent US20160206631A1, “OXYSTEROLS THAT ACTIVATE LIVER X RECEPTOR SIGNALING AND INHIBIT HEDGEHOG SIGNALING” (THE REGENTS OF THE UNIVERSITY OF CALIFORNIA, priority 2010, published 2016).

Columns and labels:
[1] = test system: Hedgehog signaling pathway; assay: Ptch1 mRNA expression (Hh target gene) by Q-RT-PCR in Saos-2 cells; assay type: cell-based, human; settings: Saos-2, 2% FBS, 72 hours; 2 or 4 τM TO, 4 μM cyclopamine (FIG. 5)
Experimental: Saos-2 cells were cultured in medium containing 2% FBS and were treated at confluence with 4 μM Cyc, 2 or 4 τM TO, alone or in combination for 72 hours. Expression of Ptch1 and Gli1 (data not shown) mRNA was measured by Q-RT-PCR and normalized to GAPDH.

[2] = test system: CAPAN-1 human pancreatic cancer cells; assay: Ihh and Shh mRNA expression in CAPAN-1 cells; assay type: cell-based; settings: cyclopamine 4 μM, TO 2-5 μM, data not shown
Experimental: Expression of Shh and Ihh mRNA in human cultures of pancreatic cancer cells, CAPAN-1, L3.6p1, and E3LZ10.7 were analyzed by Q-RT-PCR and normalized to GAPDH expression. Cells were cultured in DMEM containing 10% FBS and RNA was extracted 3 days after seeding. Data from a representative experiment are reported as the mean of triplicate determinations±SD (p<0.001 for CAPAN-1 vs. other two cell types for Shh and 11 h mRNA expression).
Culturing CAPAN-1 cells in 1% vs. 10% FBS had no effects on their level of mRNA expression for 11th and Shh (data not shown), and treatment of CAPAN-1 cells with the Hh pathway inhibitor cyclopamine (4 μM) or the LXR agonist TO (2-5 μM) had no effect on the expression of Ihh or Shh mRNA in these cells (data not shown).

[3] = test system: Hedgehog signaling; assay: CAPAN-1 conditioned-medium-induced Hh target gene expression (Ptch1, HHIP, Gli1) in C3H10T1/2 cells; assay type: cell-based; settings: C3H10T1/2, 48 hours; TO 2 μM, Oxy16 5 μM, Cyc 4 μM (FIG. 10)
Experimental: Next, cells were treated with DMEM containing 5% […] or CAPAN-1 CM in the presence or absence of TO, Oxy16, or Cyc. After 48 hours, RNA was extracted and analyzed by Q-RT-PCR for the expression of Hh target genes Ptch1, HHIP, and Gli1 and normalized to GAPDH expression.
As noted above, Hh signaling appears to play an important role in the initiation and progression of pancreatic cancer (26), and the inhibition of HE signaling using small molecule antagonists inhibits pancreatic cancer cells from growing in vitro and in vivo (50). […] Subsequently, Hh signaling in stromal cells provides a permissive milieu for tumor cells to grow. […] In this Example, we examine this possibility using an in vitro model system in which Hh signaling is induced in C3H10T1/2 embryonic fibroblasts by conditioned-medium (CM) from CAPAN-1 human pancreatic cancer cells.
(§1) In order to assess the functional activity of Hh proteins produced by CAPAN-1 cells, we examined the ability of CM to induce Hh target gene expression in C3H10T1/2 embryonic fibroblasts.

[4] = test system: C3H10T1/2 embryonic fibroblasts; assay: CAPAN-1 conditioned-medium-induced alkaline phosphatase activity in C3H10T1/2 cells; assay type: cell-based; settings: C3H10T1/2, 3 days; TO 2 μM, Oxy16 5 μM, Cyc 4 μM (FIG. 11)
Experimental: Next, cells were treated with DMEM containing 5% FBS or CAPAN-1 CM in the presence or absence of TO, Oxy16, or Cyc. After 3 days, alkaline phosphatase activity assay using whole cell lysates was performed.
as §1

[5] = test system: Hedgehog pathway; settings: cited from earlier work
[6] = test system: L3.6p1 human pancreatic cancer cells; assay: Clonogenic growth of L3.6p1 pancreatic cancer cells in methylcellulose; assay type: cell-based; settings: 72 hours treatment, colonies counted after 10 days
Experimental: (§2) Following treatment cells were harvested by washing cells twice with phosphate buffered saline (PBS) followed by enzymatically detaching with trypsin/EDTA. Cells were collected then washed twice with PBS. Cells were counted then resuspended in 500 uL of media. The volume of cells required for 2,000 cells from the control group was removed from each group then mixed with methylcellulose (1.2%) containing 30% fetal bovine serum, 1% bovine serum albumin, 10^-4 M 2-mercaptoethanol, and 2 mM L-glutamine. Cells were plated in low-attachment 6 well plates (1 ml/well), each group being plated in triplicate. Following 10 days of incubation, tumor cell colonies consisting of >40 cells were counted using an inverted microscope. Results are presented as the percentage of colonies from each treatment group compared to the control group (Table 2).

[7] = test system: REH human ALL cells; assay: Clonogenic growth of REH ALL cells; assay type: cell-based
Experimental: as §2
A similar experiment to that shown above for pancreatic cancer cells was performed using the human ALL cells, REH (Table 3).

[8] = test system: human primary multiple myeloma cells derived from patients; assay: Clonogenic growth of primary multiple myeloma cells from patients in methylcellulose; assay type: cell-based; settings: 1 μM, 96 hours, CD34+ and CD138+ depleted bone marrow mononuclear cells
[9] = test system: LXR; assay: LXR target gene expression by Q-RT-PCR in Saos-2 osteosarcoma cells; assay type: cell-based, human; settings: for expression of LXR target genes ABCA1 and SREBP1c: Saos-2 cells (FIG. 2, 72 hours for TO)
Source text: Data from a representative experiment are reported as the Data from a representative experiment are reported as the mean of triplicate determinations±SD relative to the expression level of LXRα (p<0.001 for control vs. both concentrations of TO for ABCA1 and SREBP1c mRNA).
Culturing the cells in varying serum (FBS) concentrations from 1% to 10% had no effect on LXRs or LXR target gene expression levels at baseline.

[10] = test system: Saos-2 human osteosarcoma cells; assay: Anchorage-independent clonogenic growth of Saos-2 cells; assay type: cell-based; settings: for clonogenic growth: Saos-2, 1 μM, 72 hours, colonies after 10 days (FIG. 4)
Experimental: (§3) Next, cells were harvested and examined for clonogenic growth in non-adherent plates after 10 days of culturing. Data from a representative of two separate experiments are reported as the relative number of colonies formed by cells treated with LXR ligands relative to cells treated with control vehicle (% of control).
(§4) We examined whether LXR activation inhibits the clonogenic growth of human osteosarcoma cells using an anchorage-independent cell growth assay. Saos-2 and U2OS cells were seeded in standard tissue culture plates and treated for 72 hours with control vehicle or 1 μM of TO, 22R, or Oxy16. Following treatments with LXR ligands, the drugs were removed and the cells harvested and plated in methylcellulose media in non-adherent plates (Costar) and the cell colonies formed after 10 days were counted.

[11] = test system: U2OS human osteosarcoma cells; assay: Anchorage-independent clonogenic growth of U2OS cells; assay type: cell-based; settings: 1 μM, 72 hours, colonies after 10 days (FIG. 4)
Experimental: as §3, §4

[12] = test system: human NCI-H929 multiple myeloma cell line; assay: Clonogenic growth of NCI-H929 multiple myeloma cells; assay type: cell-based; settings: 1 μM, 96 hours, colonies after 10 days (FIG. 6)
Experimental: NCI-11929 multiple myeloma cells were treated for 96 hours with control vehicle or 1 μM of each compound as shown. Next, drugs were removed and cells were plated in methylcellulose. Clonogenic growth of colonies determined after 10 days. Data are reported as percentage of colony number normalized to control group.
In order to examine the effect of LXR activation on the clonogenic growth of multiple myeloma cells, the human NCI-H929 multiple myeloma cell line was used.

[13] = test system: NCI-H929 multiple myeloma cancer stem cells; assay: Percentage of cancer stem cells (CD138 negative, ALDH positive) in NCI-H929 cultures by flow cytometry; assay type: cell-based, human; settings: 1 μM, 96 hours (FIGS. 7, 8)
Experimental: NCI-H929 multiple myeloma cells were treated for 96 hours with control vehicle or 1 μM of each compound as shown. Next, percentage of CD138negative cells in the same number of starting cells from each group was determined by flow cytometry.
NCI-H929 multiple myeloma cells were treated for 96 hours with control vehicle or 1 μM of each compound as shown. Next, percentage of ALDH+ cells in the same number of starting cells from each group was determined by flow cytometry.

[14] = test system: LXR; assay: LXR target gene expression in C3H10T1/2 cells; settings: C3H10T1/2, 48 hours
Source text: Next we examined whether LXR activation by LXR agonists inhibits CAPAN-1 CM-induced Hh target gene expression in fibroblastic cells.
As noted above, specific oxysterols are thought to be physiological ligands of LXRs that are classified as partial agonists based on their differential effects on the interaction of LXRs with co-activators and co-repressors compared to those induced by the full LXR agonist TO.

[15] = test system: LXR; assay: ABCA1 (LXR target gene) expression by Q-RT-PCR in M2-10B4 bone marrow stromal cells
Experimental: This was measured by the ability of these molecules to induce the expression of LXR-target genes, including ABCA1, in M2-10B4 bone marrow stromal cells (MSC) after 48 hours of treatment (Table 1).

[16] = test system: human pancreatic cancer cells; assay: Clonogenic growth of human pancreatic cancer cells in vitro; assay type: cell-based
[17] = test system: LXR; assay: LXR target gene expression in human pancreatic cancer cells

Structure (SMILES) | Ptch1 mRNA expression [1] | expression of Ihh or Shh mRNA [2] | CAPAN-1 CM-induced expression of Hh target genes Ptch1, Gli1, HHIP [3] | CAPAN-1 CM-induced ALP activity [4] | net effect of the LXR agonist on the Hedgehog pathway [5] | Normalized Colony # (% of control) ([6]; 5 μM) | Raw Colony # ([6]; 5 μM) | Normalized Colony # (% of control) ([6]; 10 μM) | Raw Colony # ([6]; 10 μM) | Normalized Colony # (% of control) ([7]; 0.1 μM) | Raw Colony # ([7]; 0.1 μM) | Normalized Colony # (% of control) ([7]; 0.5 μM) | Raw Colony # ([7]; 0.5 μM) | colony formation (% of control) ([8]; Specimen # 1) | colony formation (% of control) ([8]; Specimen # 2) | expression of LXR target genes ABCA1 and SREBP1c [9] | clonogenic growth [10] | clonogenic growth [11] | clonogenic growth [12] | percentage of cancer stem cells (CD138 negative and ALDH positive cells) [13] | further results
CC1=C2C[C@H]3[C@@H](CC=C4C[C@@H](O)CC[C@@]43C)[C@@H]2CC[C@]12O[C@@H]1C[C@H](C)CN[C@H]1[C@H]2C [cyclopamine] | significant inhibition | no effect | completely inhibited | inhibited | – | – | – | – | – | – | – | – | – | – | – | – | – | – | – | – | –
C=C(C)CCC[C@](C)(O)C1CCC2C3CC=C4C[C@@H](O)CC[C@]4(C)C3CC[C@@]21C (stereo partly shown) [Oxy 13] | – | – | – | – | leave the Hedgehog pathway active | – | – | – | – | – | – | – | – | – | – | – | – | – | – | – | –
C[C@H](CCCC(C)(C)O)[C@H]1CC[C@H]2[C@@H]3CC=C4C[C@@H](O)CC[C@]4(C)[C@H]3CC[C@]12C [25-hydroxycholesterol] | – | – | – | – | leave the Hedgehog pathway active | – | – | – | – | – | – | – | – | – | – | – | – | – | – | – | –
CC(C)CC[C@@H](O)[C@](C)(O)[C@H]1CC[C@H]2[C@@H]3CC=C4C[C@@H](O)CC[C@]4(C)[C@H]3CC[C@]12C [Oxy16, (2R,3R)-2-((3S,8S,9S,10R,13S,14S,17S)-3-Hydroxy-10,13-dimethyl-2,3,4,7,8,9,10,11, 12,13,14,15,16,17-tetradecahydro-1H-cyclopenta[a]phenanthren-17-yl)-6-methyl-heptane-2,3-diol] | – | – | inhibited | inhibited | – | 22 % of control | 53 | 10 % of control | 24 | 71 % of control | 65 | 15 % of control | 14 | 13 % of control | 20 % of control | significant expression | significant inhibition | significant inhibition | inhibited clonogenic growth | significantly reduced | induction of LXR target genes ABCA1 and ABCG1 ([9]; osteosarcoma cells, preliminary studies (FIG. 3)): strong induction; potency in blocking clonogenic growth of osteosarcoma cells versus naturally occurring counterparts ([10]; osteosarcoma cells, compared with 22R and 20S): more potent than its naturally occurring counterparts; induction of ABCA1 and ABCG1 [14]: induction; fold induction at 2 µM ([15]; M210B4, 48 h, read-out: ABCA1 gene expression, Fold Induction ± SD): 2.1 ± 0.5; LXR signaling activation ([15]; bone marrow stromal cells): Activate LXR Signaling
O=S(=O)(c1ccccc1)N(CC(F)(F)F)c1ccc(C(O)(C(F)(F)F)C(F)(F)F)cc1 [TO, TO901317, reference compound] | significant inhibition | no effect | significantly inhibited | significantly inhibited | – | 41 % of control | 100 | 15 % of control | 37 | 48 % of control | 44 | 37 % of control | 34 | 27 % of control | 18 % of control | robust expression | significant inhibition | significant inhibition | inhibited clonogenic growth | significantly reduced | clonogenic growth [16]: significantly inhibit; expression of LXR target genes [17]: induce the expression of LXR target genes
